16 compounds from BindingDB's records for doi:10.1021/jm300416h (Taiho Pharmaceutical, 2012) can be followed below.

A short description of experiment [1]: Inhibition of human dUTPase-mediated cell proliferation in HeLa S3 cells assessed as compound concentration required to reduce 50% of 1 uM of FdUrd T/C after 24 hrs by crystal violet staining.
Experiment [2] is described as follows: Inhibition of human dUTPase-mediated cell proliferation in HeLa S3 cells after 72 hrs by crystal violet staining.

pEC50, pIC50: −log10 of the molar value.

The term pEC50 denotes the negative decadic logarithm of the EC50, by convention in mol/L. For `CC(C)(CC/C=C/Cn1ccc(=O)[nH]c1=O)NS(=O)(=O)c1ccccc1`, in experiment [1], the pEC50 was 5.59. Turning to `CC(C)(CCCOCn1ccc(=O)[nH]c1=O)NS(=O)(=O)c1ccccc1`, the pEC50 in experiment [1] is 5.29. Regarding `CC(C)(CC/C=C/Cn1ccc(=O)[nH]c1=O)NS(=O)(=O)c1cccc(OCC(F)F)c1`, the pEC50 in experiment [1] was 7.31. On to `CC(C)(NS(=O)(=O)c1cccc(OC2CCCC2)c1)c1ccc(Cn2ccc(=O)[nH]c2=O)cc1`, for which the pEC50 in experiment [1] was 6.92. In the case of `C[C@@H](NS(=O)(=O)CC/C=C/Cn1ccc(=O)[nH]c1=O)c1cccc(OCC(F)F)c1`, the pEC50 in experiment [1] is 7.02.

Regarding `CC(C)(NS(=O)(=O)c1cccc(OCC2CC2)c1)c1ccc(Cn2ccc(=O)[nH]c2=O)cc1`, the pEC50 in experiment [1] was 6.85. Same read-out and setting: as for `C[C@@H](NS(=O)(=O)c1ccc(Cn2ccc(=O)[nH]c2=O)cc1)c1cccc(OCC2CC2)c1`, the figure is 6.03; as for `C[C@@H](NS(=O)(=O)CC/C=C/Cn1ccc(=O)[nH]c1=O)c1cccc(OC2CCCC2)c1`, 6.82. For the compound `CC(C)(NS(=O)(=O)c1cccc(OCC(F)F)c1)c1ccc(Cn2ccc(=O)[nH]c2=O)cc1`, the pEC50 in experiment [1] was 7.00. Turning to `COc1cccc(S(=O)(=O)NC(C)(C)c2ccc(Cn3ccc(=O)[nH]c3=O)cc2)c1`, the pEC50 in experiment [1] was 5.50. For `COc1cccc(S(=O)(=O)NC(C)(C)CC/C=C/Cn2ccc(=O)[nH]c2=O)c1`, the pEC50 in experiment [1] was 6.35. One may read the pIC50 as the IC50 on a negative log10 scale, so that one unit is a factor of ten. For `C[C@@H](NS(=O)(=O)CC/C=C/Cn1ccc(=O)[nH]c1=O)c1cccc(OCC2CC2)c1`, the pEC50 in experiment [1] was 7.18. In experiment [2], this compound showed a pIC50 of 4.42. As to `C[C@@H](NS(=O)(=O)c1ccc(Cn2ccc(=O)[nH]c2=O)cc1)c1cccc(OC2CCCC2)c1`, in experiment [1], the pEC50 is 6.21. On to `CC(C)(CC/C=C/Cn1ccc(=O)[nH]c1=O)NS(=O)(=O)c1cccc(OC2CCCC2)c1`, for which the pEC50 in experiment [1] is 6.70. As to `C[C@@H](NS(=O)(=O)c1ccc(Cn2ccc(=O)[nH]c2=O)cc1)c1cccc(OCC(F)F)c1`, the pEC50 in experiment [1] is 6.21. For the compound `CC(C)(NS(=O)(=O)c1ccccc1)c1ccc(Cn2ccc(=O)[nH]c2=O)cc1`, in experiment [1], the pEC50 was 5.59.
